The values below come from patent publication US11071731B2, “Allosteric modulators of the mu opioid receptor” (Chiromics, LLC, priority 2017, dated 2021).

Assay [1] addresses T1, mu opioid receptor (MOR) (Homo sapiens, UniProt P35372). As to the kind of experiment: PathHunter β-arrestin recruitment assay, PAM mode with EC20 endomorphin-1. The format is cell-based. Conditions: for EC50: read-out: β-arr. EC50. The method, boiled down: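 β-Arrestin recruitment to the receptor was tracked by chemiluminescent β-galactosidase activity from complementing fragments (ED on receptor, EA on β-arrestin). Per-compound outputs were EC50 and percent maximal response.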
Background: Activated receptors often draw arrestin, which recruitment assays turn into a signal.

The target of assay [2] is T1, mu opioid receptor (MOR). As to the kind of experiment: Hit Hunter cAMP signaling assay (adenylyl cyclase inhibition), PAM mode with EC20 endomorphin-1. It counts as cell-based.
Setting [3] is: maximal response for β-arrestin recruitment.
Setting [4] is: adenylyl cyclase inhibition, read-out: cAMP EC50.
The mark [5] stands for this setting: maximal response for adenylyl cyclase inhibition.
Setting [6] is: cAMP EC50, adenylyl cyclase inhibition.
Where [7] appears, read: maximal response, β-arrestin recruitment.
Setting [8] is: maximal response, adenylyl cyclase inhibition.

T1 sequence (P35372 whole entry, the tested form may be a part): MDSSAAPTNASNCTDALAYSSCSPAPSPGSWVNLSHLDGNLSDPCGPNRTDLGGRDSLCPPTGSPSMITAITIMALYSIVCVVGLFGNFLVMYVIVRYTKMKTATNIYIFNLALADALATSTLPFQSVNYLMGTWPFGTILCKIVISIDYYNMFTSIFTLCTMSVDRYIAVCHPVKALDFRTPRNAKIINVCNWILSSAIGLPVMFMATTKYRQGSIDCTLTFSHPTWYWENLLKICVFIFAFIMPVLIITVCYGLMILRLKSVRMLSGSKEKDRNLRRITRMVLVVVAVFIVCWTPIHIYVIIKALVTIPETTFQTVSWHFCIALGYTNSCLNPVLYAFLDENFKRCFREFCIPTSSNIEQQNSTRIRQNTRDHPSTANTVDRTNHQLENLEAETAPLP

For the molecule `COc1ccc(C2CC(C(F)(F)F)CN2S(=O)(=O)c2ccc(Cl)cc2)cc1Br` (mixture of isomers) [Compound 86], the “β-arr Max. Resp.” value at mu opioid receptor (MOR) [1] (setting [3]) was “D (D represents a maximal response of < 40%)”. The EC50 on mu opioid receptor (MOR) [1] (β-arrestin recruitment) and on mu opioid receptor (MOR) [2] (setting [4]) was greater than 2100 nM in each case. The “cAMP Max. Resp.” value at mu opioid receptor (MOR) [2] (setting [5]) was “D (D represents a maximal response of < 40%)”.

With `Fc1cnc(Cl)nc1N1CCCCC1c1cccc(C(F)(F)F)c1F` (stereo not shown) [compound 355], the “β-arr Max. Resp.” value on mu opioid receptor (MOR) [1] (setting [3]) is reported as “D (D represents a maximal response of < 40%)”. The EC50 at mu opioid receptor (MOR) [1] (β-arrestin recruitment) and at mu opioid receptor (MOR) [2] (setting [6]) was less than 700 nM in each case. Besides, the “cAMP Max. Resp.” value at mu opioid receptor (MOR) [2] (setting [5]) was “D (D represents a maximal response of < 40%)”.

In the case of `Fc1cnc(Cl)nc1N1CCCCC1c1ccncn1` (stereo not shown) [compound 391], the “β-arr Max. Resp.” value at mu opioid receptor (MOR) [1] (setting [3]) is reported as “D (D represents a maximal response of < 40%)”. Besides, the 50% effective concentration (EC50) on mu opioid receptor (MOR) [1] (β-arrestin recruitment) and on mu opioid receptor (MOR) [2] (setting [6]) was less than 700 nM throughout. The “cAMP Max. Resp.” value on mu opioid receptor (MOR) [2] (setting [5]) was “D (D represents a maximal response of < 40%)”.

On to `Fc1cnc(Cl)nc1N1CCCCC1c1cc(F)c(F)c(F)c1` (stereo not shown) [compound 327], for which, on mu opioid receptor (MOR) [1] (setting [3]), the “β-arr Max. Resp.” value was “D (D represents a maximal response of < 40%)”. The EC50 at mu opioid receptor (MOR) [1] (β-arrestin recruitment) and at mu opioid receptor (MOR) [2] (setting [6]) was less than 700 nM throughout. Besides, the “cAMP Max. Resp.” value at mu opioid receptor (MOR) [2] (setting [5]) is on record as “D (D represents a maximal response of < 40%)”.

In the case of `CCCC1CCCN(c2nc(Cl)ncc2F)C1c1cccc(C(F)(F)F)c1` (stereo not shown) [compound 247], the “β-arr Max. Resp.” value at mu opioid receptor (MOR) [1] (setting [3]) is given as “F (F represents a maximal response of > 60%)”. Further, the EC50 at mu opioid receptor (MOR) [1] (β-arrestin recruitment) and on mu opioid receptor (MOR) [2] (setting [4]) was greater than 2100 nM each time. For the same molecule, the “cAMP Max. Resp.” value at mu opioid receptor (MOR) [2] (setting [5]) is recorded as “E (E represents a maximal response of 40-60%)”.

As to `Fc1cnc(Cl)nc1N1CCCCC1c1cccnc1F` (stereo not shown) [compound 335], the “β-arr Max. Resp.” value at mu opioid receptor (MOR) [1] (setting [3]) is recorded as “D (D represents a maximal response of < 40%)”. Further, the EC50 on mu opioid receptor (MOR) [1] (β-arrestin recruitment) and at mu opioid receptor (MOR) [2] (setting [6]) was less than 700 nM in each case. Besides, the “cAMP Max. Resp.” value on mu opioid receptor (MOR) [2] (setting [5]) is recorded as “D (D represents a maximal response of < 40%)”.

On to `Fc1ccc(Cl)cc1C1CCCCN1c1ccnc(Cl)n1` (stereo not shown) [compound 406], for which the “β-arr Max. Resp.” value at mu opioid receptor (MOR) [1] (setting [3]) was “D (D represents a maximal response of < 40%)”. The EC50 on mu opioid receptor (MOR) [1] (β-arrestin recruitment) and on mu opioid receptor (MOR) [2] (setting [6]) was less than 700 nM throughout. The “cAMP Max. Resp.” value at mu opioid receptor (MOR) [2] (setting [5]) was “D (D represents a maximal response of < 40%)”.

Consider `O=S(=O)(c1ccc(Cl)cc1)N1CCCCC1c1ccc(F)c(Cl)c1` (racemic) [compound 52], for which the “β-arr Max. Resp.” value on mu opioid receptor (MOR) [1] (setting [3]) is on record as “F (F represents a maximal response of > 60%)”. Besides, the EC50 at mu opioid receptor (MOR) [1] (β-arrestin recruitment) and at mu opioid receptor (MOR) [2] (setting [4]) was less than 700 nM each time. For the same molecule, the “cAMP Max. Resp.” value on mu opioid receptor (MOR) [2] (setting [5]) is given as “F (F represents a maximal response of > 60%)”.

In the case of `Oc1nccc(N2CCCCC2c2cccc(C(F)(F)F)c2)n1` (stereo not shown) [compound 401], at mu opioid receptor (MOR) [1] (setting [3]), the “β-arr Max. Resp.” value is reported as “D (D represents a maximal response of < 40%)”. Besides, the EC50 at mu opioid receptor (MOR) [1] (β-arrestin recruitment) and at mu opioid receptor (MOR) [2] (setting [6]) was less than 700 nM in each case. Besides, the “cAMP Max. Resp.” value at mu opioid receptor (MOR) [2] (setting [5]) is given as “D (D represents a maximal response of < 40%)”.

Regarding `Fc1cnc(Cl)nc1N1CCCCC1c1ccc(C(F)(F)F)nc1` (stereo not shown) [compound 413], on mu opioid receptor (MOR) [1] (setting [3]), the “β-arr Max. Resp.” value is on record as “D (D represents a maximal response of < 40%)”. Moreover, the EC50 on mu opioid receptor (MOR) [1] (β-arrestin recruitment) and at mu opioid receptor (MOR) [2] (setting [6]) was less than 700 nM throughout. The “cAMP Max. Resp.” value on mu opioid receptor (MOR) [2] (setting [5]) is “D (D represents a maximal response of < 40%)”.

In the case of `Fc1cnc(Cl)nc1N1CCCCC1c1ccc2cnnn2c1` (stereo not shown) [compound 291], the “β-arr Max. Resp.” value at mu opioid receptor (MOR) [1] (setting [3]) is listed as “D (D represents a maximal response of < 40%)”. Also, the EC50 at mu opioid receptor (MOR) [1] (β-arrestin recruitment) and at mu opioid receptor (MOR) [2] (setting [6]) was greater than 2100 nM each time. For the same molecule, the “cAMP Max. Resp.” value on mu opioid receptor (MOR) [2] (setting [5]) is listed as “F (F represents a maximal response of > 60%)”.

Regarding `COC(=O)c1ccc(N2CCCCC2c2cccc(C(F)(F)F)n2)cc1` (stereo not shown) [compound 478], at mu opioid receptor (MOR) [1] (setting [7]), the “β-arr Max. Resp.” value is listed as “F (F represents a maximal response of > 60%)”. Besides, the EC50 at mu opioid receptor (MOR) [1] (β-arrestin recruitment) and at mu opioid receptor (MOR) [2] (setting [6]) was greater than 2100 nM throughout. Besides, the “cAMP Max. Resp.” value on mu opioid receptor (MOR) [2] (setting [8]) is reported as “D (D represents a maximal response of < 40%)”.

As for `COc1ccc(C2CCCCN2c2ncncc2F)cc1Br` (stereo not shown) [compound 233], the “β-arr Max. Resp.” value at mu opioid receptor (MOR) [1] (setting [3]) is “F (F represents a maximal response of > 60%)”. Moreover, the EC50 on mu opioid receptor (MOR) [1] (β-arrestin recruitment) and on mu opioid receptor (MOR) [2] (setting [6]) was greater than 2100 nM each time. For the same molecule, the “cAMP Max. Resp.” value on mu opioid receptor (MOR) [2] (setting [5]) is reported as “F (F represents a maximal response of > 60%)”.

As to `COC(=O)c1ccc(N2CCCCC2c2ccc(F)c(Cl)c2)cc1` (stereo not shown) [compound 477], the “β-arr Max. Resp.” value on mu opioid receptor (MOR) [1] (setting [7]) was “F (F represents a maximal response of > 60%)”. Also, the EC50 on mu opioid receptor (MOR) [1] (β-arrestin recruitment) and at mu opioid receptor (MOR) [2] (setting [6]) was greater than 2100 nM throughout. At mu opioid receptor (MOR) [2] (setting [8]), the “cAMP Max. Resp.” value was “D (D represents a maximal response of < 40%)”.

Take `Fc1c(Cl)cccc1CN1CCCCC1c1cccc(C(F)(F)F)n1` (stereo not shown) [compound 172]: at mu opioid receptor (MOR) [1] (setting [3]), the “β-arr Max. Resp.” value is on record as “F (F represents a maximal response of > 60%)”. Besides, the EC50 (usually the concentration that produces a half-maximal response) at mu opioid receptor (MOR) [1] (β-arrestin recruitment) was 700 to 2100 nM; on mu opioid receptor (MOR) [2] (setting [6]), less than 700 nM. Moreover, the “cAMP Max. Resp.” value on mu opioid receptor (MOR) [2] (setting [5]) is “E (E represents a maximal response of 40-60%)”.

In the case of `Fc1cnc(Cl)nc1N1CCCCC1c1cncc(C(F)(F)F)c1` (stereo not shown) [compound 376], on mu opioid receptor (MOR) [1] (setting [3]), the “β-arr Max. Resp.” value was “D (D represents a maximal response of < 40%)”. Besides, the EC50 at mu opioid receptor (MOR) [1] (β-arrestin recruitment) and on mu opioid receptor (MOR) [2] (setting [6]) was less than 700 nM in each case. Besides, the “cAMP Max. Resp.” value at mu opioid receptor (MOR) [2] (setting [5]) is “D (D represents a maximal response of < 40%)”.

As for `O=S(=O)(c1cccc(Cl)c1F)N1CCCCC1c1cccc(C(F)(F)F)c1` (stereo not shown) [Compound 28], the “β-arr Max. Resp.” value at mu opioid receptor (MOR) [1] (setting [3]) is reported as “F (F represents a maximal response of > 60%)”. In addition, the EC50 on mu opioid receptor (MOR) [1] (β-arrestin recruitment) and on mu opioid receptor (MOR) [2] (setting [4]) was 700 to 2100 nM throughout. Also, on mu opioid receptor (MOR) [2] (setting [5]), the “cAMP Max. Resp.” value was “D (D represents a maximal response of < 40%)”.

As for `Fc1ccc(C2CCCCN2c2nc(Cl)ncc2F)cc1Cl` (single isomer, unassigned) [compound 10], at mu opioid receptor (MOR) [1] (setting [3]), the “β-arr Max. Resp.” value is “F (F represents a maximal response of > 60%)”. The EC50 at mu opioid receptor (MOR) [1] (β-arrestin recruitment) and on mu opioid receptor (MOR) [2] (setting [6]) was less than 700 nM throughout. For the same molecule, the “cAMP Max. Resp.” value on mu opioid receptor (MOR) [2] (setting [5]) is “E (E represents a maximal response of 40-60%)”.

For the molecule `COc1ccc(C2CCCCN2c2ncc(C)c(Cl)n2)cc1Br` (stereo not shown) [compound 236], the “β-arr Max. Resp.” value at mu opioid receptor (MOR) [1] (setting [3]) is on record as “F (F represents a maximal response of > 60%)”. In addition, the concentration giving a half-maximal response (EC50) at mu opioid receptor (MOR) [1] (β-arrestin recruitment) and on mu opioid receptor (MOR) [2] (setting [6]) was greater than 2100 nM in each case. For the same molecule, the “cAMP Max. Resp.” value on mu opioid receptor (MOR) [2] (setting [5]) was “F (F represents a maximal response of > 60%)”.

Consider `O=C1CCN(c2nc(Cl)ncc2F)C(c2ccc(F)c(Br)c2)C1` (stereo not shown) [compound 240], for which the “β-arr Max. Resp.” value at mu opioid receptor (MOR) [1] (setting [3]) was “D (D represents a maximal response of < 40%)”. Further, the EC50 at mu opioid receptor (MOR) [1] (β-arrestin recruitment) and at mu opioid receptor (MOR) [2] (setting [6]) was greater than 2100 nM each time. Moreover, the “cAMP Max. Resp.” value on mu opioid receptor (MOR) [2] (setting [5]) is listed as “E (E represents a maximal response of 40-60%)”.

Take `Oc1ncc(F)c(N2CCCCC2c2cccc(C(F)(F)F)c2)n1` (stereo not shown) [compound 349]: the “β-arr Max. Resp.” value at mu opioid receptor (MOR) [1] (setting [3]) was “D (D represents a maximal response of < 40%)”. In addition, the EC50 at mu opioid receptor (MOR) [1] (β-arrestin recruitment) and at mu opioid receptor (MOR) [2] (setting [6]) was less than 700 nM each time. In addition, the “cAMP Max. Resp.” value at mu opioid receptor (MOR) [2] (setting [5]) is listed as “D (D represents a maximal response of < 40%)”.

With `Fc1c(Cl)ncnc1N1CCCCC1c1cccc(C(F)(F)F)c1` (stereo not shown) [compound 351], the “β-arr Max. Resp.” value at mu opioid receptor (MOR) [1] (setting [3]) was “D (D represents a maximal response of < 40%)”. For the same molecule, the EC50 on mu opioid receptor (MOR) [1] (β-arrestin recruitment) and at mu opioid receptor (MOR) [2] (setting [6]) was less than 700 nM in each case. Besides, on mu opioid receptor (MOR) [2] (setting [5]), the “cAMP Max. Resp.” value is “D (D represents a maximal response of < 40%)”.
